According to patent publication US4073883A, “Method for treatment of impaired hearing” (priority 1976, dated 1978):

Assays:
rats of Wistar strain [1] = test: Acute toxicity test in rats (single dose, 7 days observation); format: in vivo; details: for Maximum dose (no case of deaths): 7 days
Excerpt: (§1) In order to evaluate the acute toxicity of a single high dose administration of Coenzyme Q10, male and female rats of Wistar strain and male and female mice of ICR-JCL strain were used, and oral, intramuscular, subcutaneous, and intravenous administrations were studied. For the oral administration of Coenzyme Q10, gum Arabic suspension was used. For the intramuscular, subcutaneous and intravenous administrations, Coenzyme Q10 was used as its solution in a nonionic surfactant, Nikkol HCO-60. Nikkol HCO-60 is a trade name of a non-ionic surfactant comprised of hydrogenated castor oil/polyoxyethylene-60 mole ether available from Nikko Chemicals, Co. Ltd., Japan.
(§2) Observations were carried out for 7 days by using six males and six females for each dose group.

mice of ICR-JCL strain = test: Acute toxicity test in mice (single dose, 7 days observation); format: in vivo; details: for Maximum dose (no case of deaths): 7 days
Excerpt: as §1, §2

rats of Wistar strain [2] = test: Chronic oral toxicity test in rats (26 weeks); format: in vivo
Method: Coenzyme Q10 was compulsorily and orally administered to each group consisting of 10 male rats and 10 female rats of Wistar strain for 26 consecutive weeks in a ratio of 6 days a week. The dose was 6, 60 and 600 mg/Kg/day, respectively. Coenzyme Q10 was used in the form of gum Arabic suspension, whereas the solution containing gum Arabic alone is used as the control group. Collection of blood and urine samples and autopsies were carried out 26 weeks after the administration.

rats of Wistar strain [3] = test: Subacute oral toxicity test in rats (5 weeks); format: in vivo
Method: Coenzyme Q10 was compulsorily and orally administered every day for 5 weeks to each group consisting of 10 male rats and 10 female rats of Wistar strain. The dose was 40, 200, and 1000 mg/Kg/day, respectively. Coenzyme Q10 was used in the form of gum Arabic suspension, while the solution containing gum Arabic alone was used as the control group. Collection of blood and urine samples and autopsies were carried out 5 weeks after the initiation of administration.

rats = test: Teratogenesis test in rats; format: in vivo; details: 6, 60 and 600 mg/Kg/day
mice = test: Teratogenesis test in mice; format: in vivo; details: 6, 60 and 600 mg/Kg/day
[4] = test system: patients having impaired hearing caused by administration of a drug; test: Clinical test on the administration of Coenzyme Q10 for impaired hearing (audiometry); format: in vivo, human
Method: 30 Mg/day of Coenzyme Q10 was administered perorally three times a day after meal. Duration of administration differed with patients in the range of from two weeks to four months.
Coenzyme Q10 was administered to 9 patients having impaired hearing caused by administration of a drug (an antibiotic called poison against hearing organs). 8 of 9 patients were being administered with some poison against hearing organs at the time of the first medical examination of otorhinology. The remaining one patient was given streptomycin more than 10 years before then. It was pointed out that labyrinthine disorder was observed already and the administration of the poisons against hearing organs was discontinued in 5 of the 8 cases. In the remaining 3 cases, the treatment of the diseases with the poisons against hearing organs was continued with administration of Coenzyme Q10.
In many cases, a combination of drugs such as combination of streptomycin (SM) with kanamycin (KM), kanendomycin (KDM) or gentamycin (GM) had been used.
Determination of hearing acuity threshold value in air conduction and bone conduction and recruitment test were effected using an audiometer in a sound-proof chamber.
The sum of the air conduction threshold value was determined in terms of decibel units and the values before and after the administration of Coenzyme Q10 were compared with each other.
Air condition region values at 125 Hz, 250 Hz, 1 KHz, 2 KHz, 4 KHz and 8 KHz in audiogram were added together to obtain a value called the total region value at that time. In case the difference in the value between before and after the administration of Coenzyme Q10 is more than ± 35 db, it was judged to be improved or worsened and in case the difference is within 35 db, it was judged to be unchanged. In case a threshold value of a certain frequency is scaled out, a value of the maximum output at that frequency plus 5 db. was employed.

rabbits = test: Subacute oral toxicity test in rabbits (23 days); format: in vivo
Method: Coenzyme Q10 was compulsorily and orally administered every day for 23 days to each group consisting of 6 male rabbits and 5 female rabbits. The dose was 6, 60 and 600 mg/Kg/day, respectively. Coenzyme Q10 was used in the form of gum Arabic suspension, whereas the solution containing gum Arabic alone was used as the control group. On the 24th day, blood samples were collected from all the animals, and 3 males and 2 females from each group were then selectively autopsied.

[5] = intramuscular, in Nikkol HCO-60, single dose
[6] = intravenous, in Nikkol HCO-60, single dose
[7] = oral, gum Arabic suspension, single dose
[8] = relative to maximum doses of Table 1
[9] = subcutaneous, in Nikkol HCO-60, single dose
[10] = attributed to spontaneous pneumonia and aspiration pneumonia due to an erroneous administration
[11] = 6, 60, 600 mg/Kg/day oral, 23 days

COC1=C(OC)C(=O)C(C/C=C(\C)CC/C=C(\C)CC/C=C(\C)CC/C=C(\C)CC/C=C(\C)CC/C=C(\C)CC/C=C(\C)CC/C=C(\C)CC/C=C(\C)CCC=C(C)C)=C(C)C1=O [Coenzyme Q10]
toxicity (overall, acute) (rats of Wistar strain [1]; acute, overall): extremely low
Maximum dose (no case of deaths) (rats of Wistar strain [1]; [5]): 500 mg/kg
Maximum dose (no case of deaths) (rats of Wistar strain [1]; [6]): 250 mg/kg
deaths (rats of Wistar strain [1]; maximum dose in each route): no case of deaths
Maximum dose (no case of deaths) (rats of Wistar strain [1]; [7]): 4000 mg/kg
LD50 (rats of Wistar strain [1]; [8]): far higher than the maximum dose
Maximum dose (no case of deaths) (rats of Wistar strain [1]; [9]): 500 mg/kg
toxicity (overall, acute) (mice of ICR-JCL strain; acute, overall): extremely low
Maximum dose (no case of deaths) (mice of ICR-JCL strain; [5]): 500 mg/kg
Maximum dose (no case of deaths) (mice of ICR-JCL strain; [6]): 250 mg/kg
deaths (mice of ICR-JCL strain; maximum dose in each route): no case of deaths
Maximum dose (no case of deaths) (mice of ICR-JCL strain; [7]): 4000 mg/kg
LD50 (mice of ICR-JCL strain; [8]): far higher than the maximum dose
Maximum dose (no case of deaths) (mice of ICR-JCL strain; [9]): 500 mg/kg
body weight vs control (rats of Wistar strain [2]; 6, 60, 600 mg/Kg/day oral, 26 weeks): increased as same as that of the control group
general condition vs control (rats of Wistar strain [2]; 6, 60, 600 mg/Kg/day oral, 26 weeks, 6 days a week): no difference
biochemical tests of blood and urine vs control (rats of Wistar strain [2]; 26 weeks): No significant changes were recognized
weight of organs (rats of Wistar strain [2]; 26 weeks): no significant increase and decrease
deaths, females (rats of Wistar strain [2]; [10]): 3 females
deaths, males (rats of Wistar strain [2]; [10]): 11 males
toxicity (rats of Wistar strain [2]; chronic oral, 26 weeks, overall): no toxicity was observed
macroscopical and histological observation vs control (rats of Wistar strain [2]; hemoxylin.Eosine staining and liver fat staining, 26 weeks): abnormalities were not recognized
leukocytal percentages (rats of Wistar strain [2]; not dose related, within the extent of physiological fluctuations): some increase and decrease
general condition and body weight vs control (rats of Wistar strain [3]; 40, 200, 1000 mg/Kg/day oral, 5 weeks): no difference
dead animals during the experiment (rats of Wistar strain [3]; attributed to spontaneous pneumonia and aspiration pneumonia due to an error of administration): 4 animals
toxicity seemingly due to the administration (rats of Wistar strain [3]; subacute oral, 5 weeks, overall): there was not recognized the toxicity
adverse effects in mothers, fetuses, and newborns (rats): no adverse effects
adverse effects in mothers, fetuses, and newborns (mice): no adverse effects
effectiveness as a medicament for treating impaired hearing ([4]; overall conclusion): effective as a medicament for treating impaired hearing
ears improved (number of 18 ears) ([4]; with Coenzyme Q10, of 18 ears): 13 ears
ears improved (percent) ([4]; with Coenzyme Q10, of 18 ears): 72%
ears unchanged (number of 18 ears) ([4]; with Coenzyme Q10, of 18 ears): 5 ears
ears unchanged (percent) ([4]; with Coenzyme Q10, of 18 ears): 28%
worsening ([4]; with Coenzyme Q10, of 18 ears): no worsening being observed
general condition and increase of body weight vs control (rabbits; [11]): no difference
weight of each organ (rabbits; [11]): no effect
electron-microscopic observation of liver (rabbits; 7th, 14th, and 24th days after the administration): there were not recognized abnormal findings
findings suggesting toxicity (rabbits; subacute oral, 23 days, overall): there were not recognized the findings
